Data from patent publication US8883841B2, “Oncogenic ras-specific cytotoxic compound and methods of use thereof” (The Board of Regents of the University of Texas System, priority 2005, dated 2014).

Key:
[1] = test system: TNFα-mediated NFκB activation; experiment: Electrophoretic mobility shift assay (EMSA) of NFκB activity; format: cell-based, human; conditions: 12 h, TNFα 1 ng/ml
Procedure: FIGS. 11A-11C Suppression of TNFα-induced NFκB activation. NKκB reporter plasmid assay. T29K cells were transfected with pNFκB-Luc and pCMV-lacZ. 12 h later, the cells were treated with TNFα (1 ng/ml) with or without (FIG. 11A) Oncrasin-1 (10 μM) or (FIG. 11B) Sulindac (10 μm). The luciferase activity was determined at 8 h after the treatment and normalized with beta-gal activity. (FIG. 11C) H460 and T29K cells were treated with DMSO or different concentrations of Oncrasin-1 as indicated for 12 h, with or without TNFα (1 ng/ml). The NFκB activity was analyzed by EMSA.
Suppression of NFκB. In a separated study, the effect of Oncrasin compounds on NF-κB activity was assessed. Nuclear factor-κB (NF-κB)/Rel represents a group of structurally related and evolutionarily conserved transcriptional factors that play critical roles in chronic and acute inflammatory diseases, autoimmune diseases and various type of cancers (Karin and Neriah, 2000; Karin and Karin, 2006; Barnes et al., 1997). In unstimulated cells, most NF-κB/Rel dimers are bound to IκBs and retained in the cytoplasm. Upon a various stimulations, IκBs are phosphorylated and rapidly degraded, releasing NF-κB, which then enters the nucleus and executes transcriptional functions. […] The luciferase activity was determined and normalized for transfection with beta-galactosidase activity. […]

[2] = test system: phosphorylated RNA polymerase II and SR proteins; experiment: Western blot for phosphorylated RNA polymerase II and SR proteins; format: cell-based, human; conditions: 10 μM (T29Kt1) or 1 μM (H460), 12 h
Procedure: FIGS. 16A and 16B Effect on RNA processing machinary. (FIG. 16A) T29, T29Kt1, and H460 cells were treated with 10 μM Oncrasin-1 (T29 and T29Kt1) or 1 μM Oncrasin-1 (H460). Twelve hours later, cells were harvested for Western blot analysis for phosphorylation of RNA polymerase II and SR proteins. Cells treated with DMSO were used as control (C). (T) cells treated with Oncrasin-1. Arrows indicate reduced phosphorylation of the polymerase II (pPolII) and SR proteins (pSR) (FIG. 16B) In vitro transcription assay with HeLa cell nuclear extracts (Promoega). The assay was performed following manufacturers instructions. The concentrations used are indicated on the top of the panel. DRB was used as positive control for transcription inhibition.
To further test the role of RNA transcription and splicing in Oncrasin-mediated antitumor activity the phosphorylation of the largest subunit of RNA polymerase II and splicing factors were analyzed. T29, T29Kt1 and H460 cells were treated with Oncrasin-1 at an optimal concentration, around IC60 to IC80 for T29Kt1 and H460 cells. Cell lysates were collected 12 h after the treatment and subjected to Western blot analysis with antibodies specific for phosphorylated RNA polymerase If (H5, Covance Research Products, Inc., Berkeley, Calif.) and SR proteins (1H4, Zymed, obtained from Invitrogen, Carlsbad, Calif.).

`O=Cc1cn(Cc2ccc(Cl)cc2)c2ccccc12` [Oncrasin K001, 1H-Indole-3-carboxaldehyde, 1-[(4-chlorophenyl)methyl]-(9CI)] was tested, and the “concentration that effectively suppresses TNFα-mediated NFκB activation, H460 cells” value [1] was ≥ 1 µM, the “concentration that effectively suppresses TNFα-mediated NFκB activation, T29Kt1 cells” value [1] was ≥ 1 µM and the “phosphorylated RNA polymerase II and certain SR proteins” value [2] was “dramatic suppression”.
